Where “and” joins values, the source holds several entries; their conditions need not be identical. Equal entries are not always repeated.
What was measured:
Assay in all cases: radiometric filter-binding kinase assay, Kinase HotSpot
Conditions in all cases: compound 0.5 µM; ATP 10 µM
AKT2 (human) = AKT2 (human) (UniProt P31751)
BLK (human) = BLK (human) (UniProt P51451)
BMX (human) = BMX (human) (UniProt P51813)
CAMK2G (human) = CAMK2G (human) (UniProt Q13555)
CDK5 CDK5R1 p35 (human) = CDK5 CDK5R1 p35 (human) (UniProt Q00535+Q15078)
CDK6 CCND1 (human) = CDK6 CCND1 (human) (UniProt Q00534+P24385)
CDK9 CCNT1 (human) = CDK9 CCNT1 (human) (UniProt P50750+O60563)
CSNK1G1 (human) = CSNK1G1 (human) (UniProt Q9HCP0)
DDR2 (human) = DDR2 (human) (UniProt Q16832)
DMPK (human) = DMPK (human) (UniProt Q09013)
EPHA7 (human) = EPHA7 (human) (UniProt Q15375)
EPHA8 (human) = EPHA8 (human) (UniProt P29322)
EPHB4 (human) = EPHB4 (human) (UniProt P54760)
FGFR2 (human) = FGFR2 (human) (UniProt P21802)
FGFR4 (human) = FGFR4 (human) (UniProt P22455)
GRK5 (human) = GRK5 (human) (UniProt P34947)
GSK3A (human) = GSK3A (human) (UniProt P49840)
HIPK1 (human) = HIPK1 (human) (UniProt Q86Z02)
HIPK3 (human) = HIPK3 (human) (UniProt Q9H422)
INSR (human) = INSR (human) (UniProt P06213)
IRAK1 (human) = IRAK1 (human) (UniProt P51617)
MAPK13 (human) = MAPK13 (human) (UniProt O15264)
MAPK14 (human) = MAPK14 (human) (UniProt Q16539)
MATK (human) = MATK (human) (UniProt P42679)
MELK (human) = MELK (human) (UniProt Q14680)
MYLK (human) = MYLK (human) (UniProt Q15746)
NLK (human) = NLK (human) (UniProt Q9UBE8)
PAK2 (human) = PAK2 (human) (UniProt Q13177)
PAK7 (human) = PAK7 (human) (UniProt Q9P286)
PLK2 (human) = PLK2 (human) (UniProt Q9NYY3)
PLK3 (human) = PLK3 (human) (UniProt Q9H4B4)
PRKACA (human) = PRKACA (human) (UniProt P17612)
PRKCG (human) = PRKCG (human) (UniProt P05129)
PRKG1 (human) = PRKG1 (human) (UniProt Q13976)
SGK2 (human) = SGK2 (human) (UniProt Q9HBY8)
SLK (human) = SLK (human) (UniProt Q9H2G2)
SRC (human) = SRC (human) (UniProt P12931)
SRPK3 (human) = SRPK3 (human) (UniProt Q9UPE1)
STK25 (human) = STK25 (human) (UniProt O00506)
STK33 (human) = STK33 (human) (UniProt Q9BYT3)
TEC (human) = TEC (human) (UniProt P42680)
TTK (human) = TTK (human) (UniProt P33981)

Sequence of CDK6 CCND1 (human) (P24385 whole entry, looked up): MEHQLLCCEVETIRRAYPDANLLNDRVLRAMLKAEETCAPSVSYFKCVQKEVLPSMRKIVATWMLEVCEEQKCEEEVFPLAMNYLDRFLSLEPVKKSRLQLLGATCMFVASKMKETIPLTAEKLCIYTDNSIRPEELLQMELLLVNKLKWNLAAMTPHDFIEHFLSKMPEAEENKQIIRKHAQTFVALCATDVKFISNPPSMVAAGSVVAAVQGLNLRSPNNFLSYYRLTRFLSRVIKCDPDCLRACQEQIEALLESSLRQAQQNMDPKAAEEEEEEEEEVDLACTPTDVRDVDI
Sequence of CDK6 CCND1 (human) (Q00534 whole entry, looked up): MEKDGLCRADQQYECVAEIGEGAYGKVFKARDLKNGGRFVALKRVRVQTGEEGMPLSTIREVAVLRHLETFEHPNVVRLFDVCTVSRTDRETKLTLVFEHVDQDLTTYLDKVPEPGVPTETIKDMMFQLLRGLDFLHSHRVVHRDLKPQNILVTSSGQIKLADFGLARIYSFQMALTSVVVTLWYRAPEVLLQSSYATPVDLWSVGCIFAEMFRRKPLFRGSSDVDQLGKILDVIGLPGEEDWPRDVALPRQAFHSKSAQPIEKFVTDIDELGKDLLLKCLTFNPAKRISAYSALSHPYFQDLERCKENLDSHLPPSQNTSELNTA
Sequence of SRPK3 (human) (Q9UPE1 whole entry, looked up): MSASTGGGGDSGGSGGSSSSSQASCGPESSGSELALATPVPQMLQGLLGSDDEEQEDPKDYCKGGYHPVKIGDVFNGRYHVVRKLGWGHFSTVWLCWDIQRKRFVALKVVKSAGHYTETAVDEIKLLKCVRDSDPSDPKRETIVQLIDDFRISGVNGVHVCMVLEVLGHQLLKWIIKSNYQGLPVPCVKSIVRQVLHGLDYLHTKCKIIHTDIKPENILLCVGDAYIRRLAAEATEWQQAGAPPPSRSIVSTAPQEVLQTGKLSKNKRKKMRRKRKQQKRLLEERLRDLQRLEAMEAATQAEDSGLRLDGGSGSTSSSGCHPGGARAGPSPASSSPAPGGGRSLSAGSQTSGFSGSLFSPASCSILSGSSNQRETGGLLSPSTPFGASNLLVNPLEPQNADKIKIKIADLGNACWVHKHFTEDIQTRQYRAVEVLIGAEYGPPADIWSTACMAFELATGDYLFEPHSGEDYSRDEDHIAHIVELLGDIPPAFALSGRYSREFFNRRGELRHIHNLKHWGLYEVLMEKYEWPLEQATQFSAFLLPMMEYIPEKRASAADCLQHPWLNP
Sequence of STK33 (human) (Q9BYT3 whole entry, looked up): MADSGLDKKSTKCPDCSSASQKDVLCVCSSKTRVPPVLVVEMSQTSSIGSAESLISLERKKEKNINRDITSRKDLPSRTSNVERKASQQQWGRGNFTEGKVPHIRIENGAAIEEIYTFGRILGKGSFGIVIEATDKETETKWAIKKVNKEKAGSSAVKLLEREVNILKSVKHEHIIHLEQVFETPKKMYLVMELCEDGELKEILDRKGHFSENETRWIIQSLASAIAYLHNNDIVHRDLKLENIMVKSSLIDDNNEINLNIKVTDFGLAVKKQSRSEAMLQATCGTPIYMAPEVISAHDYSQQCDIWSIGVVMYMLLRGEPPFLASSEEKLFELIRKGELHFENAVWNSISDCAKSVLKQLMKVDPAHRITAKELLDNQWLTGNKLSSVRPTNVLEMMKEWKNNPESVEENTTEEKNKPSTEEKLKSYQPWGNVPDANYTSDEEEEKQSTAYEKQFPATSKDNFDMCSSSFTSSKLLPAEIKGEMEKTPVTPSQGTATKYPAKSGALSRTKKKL
Sequence of EPHB4 (human) (P54760 whole entry, looked up): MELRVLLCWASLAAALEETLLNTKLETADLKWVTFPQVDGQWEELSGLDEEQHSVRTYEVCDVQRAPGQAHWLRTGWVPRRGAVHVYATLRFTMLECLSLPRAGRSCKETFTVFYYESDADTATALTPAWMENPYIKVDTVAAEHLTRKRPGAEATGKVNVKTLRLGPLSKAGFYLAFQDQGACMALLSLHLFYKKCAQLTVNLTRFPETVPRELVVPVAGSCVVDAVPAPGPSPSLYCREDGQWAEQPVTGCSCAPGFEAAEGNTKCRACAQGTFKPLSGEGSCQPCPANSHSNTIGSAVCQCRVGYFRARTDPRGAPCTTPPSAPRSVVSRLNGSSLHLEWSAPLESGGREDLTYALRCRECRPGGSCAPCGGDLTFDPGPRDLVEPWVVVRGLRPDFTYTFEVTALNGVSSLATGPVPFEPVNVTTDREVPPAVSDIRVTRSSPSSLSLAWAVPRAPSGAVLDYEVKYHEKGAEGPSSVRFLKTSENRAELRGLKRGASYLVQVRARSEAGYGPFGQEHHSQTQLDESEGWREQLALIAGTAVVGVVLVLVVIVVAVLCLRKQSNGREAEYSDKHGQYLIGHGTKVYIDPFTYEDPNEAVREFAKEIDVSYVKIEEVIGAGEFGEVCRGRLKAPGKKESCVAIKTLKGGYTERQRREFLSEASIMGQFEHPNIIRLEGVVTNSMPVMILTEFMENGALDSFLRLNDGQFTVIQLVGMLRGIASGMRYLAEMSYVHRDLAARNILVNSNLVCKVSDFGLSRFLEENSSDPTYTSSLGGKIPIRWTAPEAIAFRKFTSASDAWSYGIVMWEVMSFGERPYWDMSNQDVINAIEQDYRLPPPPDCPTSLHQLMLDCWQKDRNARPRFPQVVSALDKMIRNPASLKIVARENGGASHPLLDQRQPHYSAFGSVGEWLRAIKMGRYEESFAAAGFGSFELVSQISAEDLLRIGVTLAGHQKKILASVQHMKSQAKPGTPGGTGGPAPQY
Sequence of MYLK (human) (Q15746 whole entry, looked up): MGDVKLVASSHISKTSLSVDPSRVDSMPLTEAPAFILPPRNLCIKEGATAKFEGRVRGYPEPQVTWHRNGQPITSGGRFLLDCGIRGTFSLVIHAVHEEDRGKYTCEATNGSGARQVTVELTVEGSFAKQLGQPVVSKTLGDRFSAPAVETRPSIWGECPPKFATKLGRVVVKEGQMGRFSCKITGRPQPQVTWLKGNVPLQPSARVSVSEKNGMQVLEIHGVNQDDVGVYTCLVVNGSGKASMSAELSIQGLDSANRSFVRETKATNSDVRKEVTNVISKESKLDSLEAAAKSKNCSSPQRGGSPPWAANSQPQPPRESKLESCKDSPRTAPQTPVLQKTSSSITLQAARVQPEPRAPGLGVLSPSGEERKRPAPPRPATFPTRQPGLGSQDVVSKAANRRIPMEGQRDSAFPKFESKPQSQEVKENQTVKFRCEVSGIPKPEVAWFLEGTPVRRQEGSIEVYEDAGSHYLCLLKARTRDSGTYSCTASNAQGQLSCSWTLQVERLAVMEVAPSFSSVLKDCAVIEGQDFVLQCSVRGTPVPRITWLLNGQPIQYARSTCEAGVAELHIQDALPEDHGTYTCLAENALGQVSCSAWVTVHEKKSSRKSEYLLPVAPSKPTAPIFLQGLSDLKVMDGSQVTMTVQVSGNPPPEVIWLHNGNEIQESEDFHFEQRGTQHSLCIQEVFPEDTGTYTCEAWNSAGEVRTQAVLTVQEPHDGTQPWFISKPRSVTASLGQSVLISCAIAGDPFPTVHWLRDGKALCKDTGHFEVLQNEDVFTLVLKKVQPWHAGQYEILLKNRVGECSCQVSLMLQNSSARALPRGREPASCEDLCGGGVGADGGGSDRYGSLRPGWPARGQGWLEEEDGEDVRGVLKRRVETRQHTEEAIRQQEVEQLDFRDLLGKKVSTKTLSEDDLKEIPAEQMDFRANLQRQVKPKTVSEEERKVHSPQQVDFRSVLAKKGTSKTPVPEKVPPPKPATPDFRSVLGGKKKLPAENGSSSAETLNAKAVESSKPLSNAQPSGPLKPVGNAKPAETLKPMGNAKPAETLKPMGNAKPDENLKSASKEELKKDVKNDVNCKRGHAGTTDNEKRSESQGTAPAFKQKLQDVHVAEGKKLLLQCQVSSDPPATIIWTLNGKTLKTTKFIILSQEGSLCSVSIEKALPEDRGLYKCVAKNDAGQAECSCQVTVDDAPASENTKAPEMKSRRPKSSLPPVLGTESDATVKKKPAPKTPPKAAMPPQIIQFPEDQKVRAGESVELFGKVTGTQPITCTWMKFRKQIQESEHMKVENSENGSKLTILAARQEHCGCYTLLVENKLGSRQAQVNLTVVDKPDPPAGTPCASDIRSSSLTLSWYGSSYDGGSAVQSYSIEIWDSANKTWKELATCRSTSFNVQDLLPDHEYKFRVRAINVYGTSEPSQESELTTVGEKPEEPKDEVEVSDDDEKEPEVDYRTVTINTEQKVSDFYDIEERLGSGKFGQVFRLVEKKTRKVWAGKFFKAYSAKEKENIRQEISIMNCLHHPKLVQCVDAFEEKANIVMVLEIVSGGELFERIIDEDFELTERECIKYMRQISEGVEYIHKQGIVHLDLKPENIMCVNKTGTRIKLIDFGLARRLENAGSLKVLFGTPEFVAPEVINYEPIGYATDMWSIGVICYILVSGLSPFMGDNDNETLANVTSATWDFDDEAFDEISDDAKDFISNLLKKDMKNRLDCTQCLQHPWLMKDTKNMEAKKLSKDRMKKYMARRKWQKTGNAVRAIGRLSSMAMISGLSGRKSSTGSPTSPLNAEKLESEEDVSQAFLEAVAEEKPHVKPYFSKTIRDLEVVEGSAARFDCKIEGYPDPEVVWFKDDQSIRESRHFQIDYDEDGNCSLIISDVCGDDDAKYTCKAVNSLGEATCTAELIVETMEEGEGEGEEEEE
Sequence of CSNK1G1 (human) (Q9HCP0 whole entry, looked up): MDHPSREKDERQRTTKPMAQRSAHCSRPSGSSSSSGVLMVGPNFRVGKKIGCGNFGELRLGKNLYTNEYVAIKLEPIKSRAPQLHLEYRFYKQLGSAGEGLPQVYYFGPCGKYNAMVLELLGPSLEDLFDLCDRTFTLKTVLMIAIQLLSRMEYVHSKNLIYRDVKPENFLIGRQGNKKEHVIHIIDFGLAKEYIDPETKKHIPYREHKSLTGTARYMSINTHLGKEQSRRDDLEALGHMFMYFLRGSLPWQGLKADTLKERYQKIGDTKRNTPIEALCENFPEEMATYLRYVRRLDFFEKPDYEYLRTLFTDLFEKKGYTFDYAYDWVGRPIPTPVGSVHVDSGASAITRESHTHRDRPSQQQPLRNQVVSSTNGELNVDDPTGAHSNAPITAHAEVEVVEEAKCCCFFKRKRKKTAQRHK

**Q.** Which results are given for `Cn1nc2c3c(cccc31)C(=O)c1ccccc1-2`?
**A.** residual activity (AKT2 (human)): 98.9%; residual activity (BLK (human)): 106%; residual activity (BMX (human)): 101%; residual activity (CAMK2G (human)): 109%; residual activity (CDK5 CDK5R1 p35 (human)): 105%; residual activity (CDK6 CCND1 (human)): 88%; residual activity (CDK9 CCNT1 (human)): 94.7%; residual activity (CSNK1G1 (human)): 102%; residual activity (DDR2 (human)): 95.1%; residual activity (DMPK (human)): 107%; residual activity (EPHA7 (human)): 104%; residual activity (EPHA8 (human)): 99.4%; residual activity (EPHB4 (human)): 99.9%; residual activity (FGFR2 (human)): 105%; residual activity (FGFR4 (human)): 108%; residual activity (GRK5 (human)): 93.8%; residual activity (GSK3A (human)): 91.1%; residual activity (HIPK1 (human)): 112%; residual activity (HIPK3 (human)): 113%; residual activity (INSR (human)): 99.5%; residual activity (IRAK1 (human)): 99.6%; residual activity (MAPK13 (human)): 106%; residual activity (MAPK14 (human)): 93.6%; residual activity (MATK (human)): 88%; residual activity (MELK (human)): 83.6%; residual activity (MYLK (human)): 77.4%; residual activity (NLK (human)): 100%; residual activity (PAK2 (human)): 102%; residual activity (PAK7 (human)): 102%; residual activity (PLK2 (human)): 93.5%; residual activity (PLK3 (human)): 96.2%; residual activity (PRKACA (human)): 104%; residual activity (PRKCG (human)): 90.6%; residual activity (PRKG1 (human)): 93.7% and 96%; residual activity (SGK2 (human)): 98.9%; residual activity (SLK (human)): 103%; residual activity (SRC (human)): 90.7%; residual activity (SRPK3 (human)): 96.3%; residual activity (STK25 (human)): 96.5%; residual activity (STK33 (human)): 81.3%; residual activity (TEC (human)): 102%; residual activity (TTK (human)): 77.7%

**Q.** Which residual activity (AKT2 (human)) does the source give for `CC(C)c1nn(-c2c(Cl)cccc2Cl)c2nc(Cc3ccc(OCCO)cc3)nc(O)c12` here?
**A.** 92.4%

**Q.** And the residual activity (BLK (human))?
**A.** 98.8%

**Q.** What about the residual activity (BMX (human)) of the same compound?
**A.** 104%

**Q.** What about the residual activity (CAMK2G (human)) of the same compound?
**A.** 98.9%

**Q.** And the residual activity (CDK5 CDK5R1 p35 (human))?
**A.** 9.64%

**Q.** What about the residual activity (CDK6 CCND1 (human)) of the same compound?
**A.** 19.8%

**Q.** What about the residual activity (CDK9 CCNT1 (human)) of the same compound?
**A.** 22.7%

**Q.** And the residual activity (CSNK1G1 (human))?
**A.** 101%

**Q.** What about the residual activity (DDR2 (human)) of the same compound?
**A.** 96.3%

**Q.** What about the residual activity (DMPK (human)) of the same compound?
**A.** 99.3%

**Q.** And the residual activity (EPHA7 (human))?
**A.** 97.9%

**Q.** And the residual activity (EPHA8 (human))?
**A.** 102%

**Q.** What about the residual activity (EPHB4 (human)) of the same compound?
**A.** 90.7%

**Q.** What about the residual activity (FGFR2 (human)) of the same compound?
**A.** 97.5%

**Q.** What about the residual activity (FGFR4 (human)) of the same compound?
**A.** 91.5%

**Q.** And the residual activity (GRK5 (human))?
**A.** 108%

**Q.** What about the residual activity (GSK3A (human)) of the same compound?
**A.** 73.1%

**Q.** What about the residual activity (HIPK1 (human)) of the same compound?
**A.** 102%

**Q.** And the residual activity (HIPK3 (human))?
**A.** 99%

**Q.** What about the residual activity (INSR (human)) of the same compound?
**A.** 100%

**Q.** What about the residual activity (IRAK1 (human)) of the same compound?
**A.** 99.2%

**Q.** And the residual activity (MAPK13 (human))?
**A.** 104%

**Q.** What about the residual activity (MAPK14 (human)) of the same compound?
**A.** 96.8%

**Q.** And the residual activity (MATK (human))?
**A.** 91.1%

**Q.** And the residual activity (MELK (human))?
**A.** 84%

**Q.** And the residual activity (MYLK (human))?
**A.** 98.3%

**Q.** And the residual activity (NLK (human))?
**A.** 97.6%

**Q.** What about the residual activity (PAK2 (human)) of the same compound?
**A.** 95.6%

**Q.** What about the residual activity (PAK7 (human)) of the same compound?
**A.** 76.4%

**Q.** What about the residual activity (PLK2 (human)) of the same compound?
**A.** 99.8%

**Q.** What about the residual activity (PLK3 (human)) of the same compound?
**A.** 99.1%

**Q.** And the residual activity (PRKACA (human))?
**A.** 99.8%

**Q.** And the residual activity (PRKCG (human))?
**A.** 81.1%

**Q.** What about the residual activity (PRKG1 (human)) of the same compound?
**A.** 92.3% and 99%

**Q.** What about the residual activity (SGK2 (human)) of the same compound?
**A.** 101%

**Q.** And the residual activity (SLK (human))?
**A.** 86.9%

**Q.** And the residual activity (SRC (human))?
**A.** 86.7%

**Q.** And the residual activity (SRPK3 (human))?
**A.** 92.9%

**Q.** What about the residual activity (STK25 (human)) of the same compound?
**A.** 68.1%

**Q.** What about the residual activity (STK33 (human)) of the same compound?
**A.** 97.5%

**Q.** And the residual activity (TEC (human))?
**A.** 105%

**Q.** What about the residual activity (TTK (human)) of the same compound?
**A.** 101%

**Q.** How did the residual activity (AKT2 (human)) turn out when `CCN(CC)CCCCN1c2ccccc2Oc2ccc(Cl)cc21` was run?
**A.** 101%

**Q.** What about the residual activity (BLK (human)) of the same compound?
**A.** 106%

**Q.** What about the residual activity (BMX (human)) of the same compound?
**A.** 104%

**Q.** And the residual activity (CAMK2G (human))?
**A.** 104%

**Q.** And the residual activity (CDK5 CDK5R1 p35 (human))?
**A.** 90.3%

**Q.** And the residual activity (CDK6 CCND1 (human))?
**A.** 98%

**Q.** What about the residual activity (CDK9 CCNT1 (human)) of the same compound?
**A.** 101%

**Q.** And the residual activity (CSNK1G1 (human))?
**A.** 104%

**Q.** And the residual activity (DDR2 (human))?
**A.** 99.4%

**Q.** What about the residual activity (DMPK (human)) of the same compound?
**A.** 99.2%

**Q.** And the residual activity (EPHA7 (human))?
**A.** 102%

**Q.** What about the residual activity (EPHA8 (human)) of the same compound?
**A.** 102%

**Q.** And the residual activity (EPHB4 (human))?
**A.** 97.9%

**Q.** What about the residual activity (FGFR2 (human)) of the same compound?
**A.** 95.7%

**Q.** And the residual activity (FGFR4 (human))?
**A.** 92.6%

**Q.** And the residual activity (GRK5 (human))?
**A.** 103%

**Q.** What about the residual activity (GSK3A (human)) of the same compound?
**A.** 108%

**Q.** What about the residual activity (HIPK1 (human)) of the same compound?
**A.** 106%

**Q.** What about the residual activity (HIPK3 (human)) of the same compound?
**A.** 94.2%

**Q.** And the residual activity (INSR (human))?
**A.** 109%

**Q.** What about the residual activity (IRAK1 (human)) of the same compound?
**A.** 118%

**Q.** And the residual activity (MAPK13 (human))?
**A.** 94.3%

**Q.** And the residual activity (MAPK14 (human))?
**A.** 95.8%

**Q.** And the residual activity (MATK (human))?
**A.** 99.9%

**Q.** What about the residual activity (MELK (human)) of the same compound?
**A.** 95.3%

**Q.** And the residual activity (MYLK (human))?
**A.** 97%

**Q.** What about the residual activity (NLK (human)) of the same compound?
**A.** 101%

**Q.** And the residual activity (PAK2 (human))?
**A.** 98.6%

**Q.** What about the residual activity (PAK7 (human)) of the same compound?
**A.** 116%

**Q.** What about the residual activity (PLK2 (human)) of the same compound?
**A.** 103%

**Q.** What about the residual activity (PLK3 (human)) of the same compound?
**A.** 102%

**Q.** What about the residual activity (PRKACA (human)) of the same compound?
**A.** 98.4%

**Q.** What about the residual activity (PRKCG (human)) of the same compound?
**A.** 91.1%

**Q.** What about the residual activity (PRKG1 (human)) of the same compound?
**A.** 91.3% and 98.8%

**Q.** What about the residual activity (SGK2 (human)) of the same compound?
**A.** 105%

**Q.** What about the residual activity (SLK (human)) of the same compound?
**A.** 105%

**Q.** What about the residual activity (SRC (human)) of the same compound?
**A.** 106%

**Q.** And the residual activity (SRPK3 (human))?
**A.** 104%

**Q.** And the residual activity (STK25 (human))?
**A.** 92.6%

**Q.** What about the residual activity (STK33 (human)) of the same compound?
**A.** 89.9%

**Q.** And the residual activity (TEC (human))?
**A.** 157%

**Q.** And the residual activity (TTK (human))?
**A.** 104%

Reference: the kinase profiling compilation of Christmann-Franck et al. (2016)
